These results are taken from US9193995B2, “Compositions for detecting human interferon-alpha subtypes and methods of use” (UNITED STATES DEPARTMENT OF HEALTH AND HUMAN SERVICES, priority 2008, dated 2015).

Test in all cases: IFN subtype expression in response to TLR ligands (RT-PCR)
What all share (format): cell-based, Human

In assay [1] the test system is myeloid DC (mDC). To be noted: 10 uM Imiquimod, 6.5 ug/ml CpG A, 1, 4 or 24 hours, varied with donor, FIG. 9E. From the text:
(§1) To test whether expression of IFN subtypes varied among different cell types, the primers of the invention were used to determine expression patterns of IFN-alpha, IFN-lambda, IFN-beta and IFN-gamma in response to ligands of TLR 3 (poly I:C), 4 (LPS), 7 (imiquimod) and 9 (CpG). LPS (E. coli O111:B4), imiquimod, and poly I:C were purchased from EMD Chemicals (Gibbstown, N.J.). CpG types D35, K, and C, and control D35 GpC oligonucleotides were synthesized by the Food and Drug Administration Center for Biologics Evaluation and Research Facility for Biotechnology Resources. For both the D35 CpG and control GpC, the two bases at the 5′ and 3′ ends had nuclease-resistant phosphorothioate linkages.
(§2) Human peripheral blood monocytes, myeloid DC (mDC), plasmacytoid DC (pDC), and B cells were isolated. Elutriated monocytes and lymphocytes were obtained from the NIH Clinical Center Department of Transfusion Medicine (Bethesda, Md.) and the preparation was subjected to Ficoll-Hypaque (Sigma-Aldrich, St. Louis, Mo.) density centrifugation. Monocytes, mDC and pDC were purified with magnetic beads specific for CD14, CD1c, and CD303, respectively using an AutoMACS magnetic cell sorter (Miltenyi Biotec, Auburn, Calif.). […]

Assay [2] concerns plasmacytoid DC (pDC). To be noted: 10 uM Imiquimod, 6.5 ug/ml CpG A, 1, 4 or 24 hours, much higher levels than mDC.
Excerpt: as §1, §2

In assay [3] the test system is monocytes, MDM and MDDC. To be noted: 25 ug/ml Poly I:C, 10 ng/ml LPS, 1, 4 or 24 hours, FIG. 9A-C.
Excerpt: as §1, §2

As to `CC(C)Cn1cnc2c(N)nc3ccccc3c21` [imiquimod], the “IFN expression in response to TLR ligand” value in assay [1] is recorded as “expressed most IFN-a subtypes”; in assay [2] it was “expressed most IFN”. As for poly I:C, the “IFN expression in response to TLR ligand” value in assay [3] was “expressed high levels of IFN-b, IFN-g, IFN-11, and to a lesser extent, IFN-l2 and IFN-a1”.
